From US5231101A, “Benzo[5,6]cyclohepta[1,2-B]pyridine derivatives and antiallergic agents comprising same” (SS Pharmaceutical Co., Ltd., priority 1991, dated 1993)

How the values were obtained:
[1] = tested on: isolated guinea pig ileum; test: Antihistamine selectivity determined from experiments (1) and (2); format: cell-based; details: determined from results of experiments (1) antihistaminergic and (2) antiacetylcholinergic action
Experimental: (§1) After a Hartley male guinea pig was sacrificed under ether anesthesia and exsanguination, the ileum was immediately isolated and a preparation was prepared. The preparation was suspended in a 20 ml Magnus bath containing 32° C. Tyrode solution (95% O2 -5% CO2 saturation) and was placed under resting tension of 1 g. The isometrical changes of the muscular tension produced were recorded on the polygraph through the force displacement transducer.
(3) Antihistamine selectivity
From the results of the above experiments (1) and (2), the antihistamine selectivity was determined in accordance with the following formula. [formula]

[2] = tested on: histamine-induced dermovascular penetration increase; test: Effect on histamine-induced dermovascular penetration increase; format: in vivo, guinea pig (5-week old); details: Cavia porcellus, 0.5 h; oral, 60 minutes before intradermal histamine (1 μg); blue spot area at 30 min; guinea pig; read-out: ID50 (the source's name)
Experimental: (4) Effect on histamine-induced dermovascular penetration increase In a shaved dorsal skin of a guinea pig (5-week old), 0.1 ml (1 μg) of histamine was intradermally injected. […] Thirty minutes later, the animal was sacrificed under exsanguination and was evaluated by square of the shortest and the longest diameters of the blue spot (histamine-injected site). Each test compound was orally administered 60 minutes before the injection of histamine.

Acute toxicity = details: mouse, in vivo; oral, ICR mice
Source text: The invention compound (Compound No. 1) was orally administered to ICR mice.

[3] = tested on: isolated guinea pig ileum; test: Antiacetylcholinergic action on the isolated guinea pig ileum (acetylcholine-induced contraction); format: cell-based, guinea pig (Hartley male); details: Cavia porcellus
Experimental: as §1
(2) Antiacetylcholinergic action on the isolated guinea pig ileum

ddy male mice = test: Effects on sleeping time (pentobarbital-induced); format: in vivo, mouse (ddy male); details: 10 mg/kg oral, 1 hour before pentobarbital (50 mg/kg i.p.), n=10, control 46.6 ± 3.8, ** p < 0.01 relative to the control (marked for loratadine only)
Experimental: (5) Effects on sleeping time Animals used in groups were ddy male mice, each group consisting of ten mice. After fasted for 24 hours, they were orally administered with a test compound. Upon an elapsed time of 1 hour after the oral administration, pentobarbital (50 mg/kg) was intraperitoneally administered and the sleeping time was measured. Statistical evaluation was performed by one-way analysis of variance, followed by the Turkey test for multiple comparison.

[4] = tested on: isolated guinea pig ileum; test: Antihistaminergic action on the isolated guinea pig ileum (histamine-induced contraction); format: cell-based, guinea pig (Hartley male); details: Cavia porcellus
Experimental: (1) Antihistaminergic action on the isolated guinea pig ileum
as §1

CN1CCC(=C2c3ccc(C#N)cc3CCc3cccnc32)CC1 [Compound No. 1, 8-Cyano-11-(1-methyl-4-piperidylidene)-6,11-dihydro-5H-benzo[5,6]-cyclohepta[1,2-b]pyridine]
Antihistamic selectivity [1]: 3212
ED50 [2]: 0.012 mg/kg
LD50 (Acute toxicity): 657 mg/kg
IC50 ([3]; vs acetylcholine (3×10^-5 M), isolated guinea pig ileum, read-out: IC50): 48.5 µM
Sleeping time (ddy male mice): 62.9 ± 5.8 min
IC50 ([4]; vs histamine (10^-5 M)-induced contraction, isolated guinea pig ileum, 32° C. Tyrode solution, read-out: IC50): 0.0151 µM

CCOC(=O)N1CCC(=C2c3ccc(Cl)cc3CCc3cccnc32)CC1 [Loratadine]
Antihistamic selectivity [1]: 190
ED50 [2]: 0.534 mg/kg
IC50 [3]: 23.4 µM
Sleeping time (ddy male mice): 75.7 ± 5.8 min
IC50 [4]: 0.123 µM

CC(C)(C)c1ccc(C(O)CCCN2CCC(C(O)(c3ccccc3)c3ccccc3)CC2)cc1 (stereo not drawn) [Terfenadine]
ED50 [2]: 3.34 mg/kg
